Data reported in patent US20060270656A1, “Substituted piperazines of azepines, oxazepines and thiazepines” (ELI LILLY AND COMPANY, priority 2003, published 2006).
Structures can show the parent of a compound that is named as a salt.

melting point | Compound
56 to 69 °C | c1ccc(C[C@@H]2CN(C3=Nc4ccccc4Sc4ccccc43)CCN2)cc1
48 to 59 °C | c1ccc(CC[C@H]2CN(C3=Nc4ccccc4Sc4ccccc43)CCN2)cc1
46 to 63 °C | CN1CCN(C2=Nc3ccccc3Sc3ccccc32)C[C@H]1Cc1ccccc1
138 to 140 °C | COCC[C@H]1CN(C2=Nc3ccccc3Sc3sc(C(C)=O)nc32)CCN1C.Cl.Cl
149 to 152 °C (dec.) | COCC[C@H]1CN(C2=Nc3ccccc3Sc3sc(C(C)C)cc32)CCN1.Cl.Cl
146 to 148 °C | COCC[C@H]1CN(C2=Nc3ccccc3Sc3scnc32)CCN1C (as salt: hydrochloride)
181 to 187 °C | CCc1cc2c(s1)Sc1ccccc1N=C2N1CCN(C)[C@@H](CCOC)C1.Cl.Cl
130 to 132 °C | CC(=O)c1nc2c(s1)Sc1ccccc1N=C2N1CCN(C)[C@@H](CCc2cccc(F)c2)C1.Cl.Cl
48 to 64 °C | CN1CCN(C2=Nc3ccccc3Sc3ccccc32)C[C@@H]1Cc1ccccc1
54 to 71 °C | c1ccc(C[C@H]2CN(C3=Nc4ccccc4Sc4ccccc43)CCN2)cc1
184 to 186 °C | COCC[C@H]1CN(C2=Nc3ccccc3Sc3scnc32)CCN1 (as salt: hydrochloride)
143 to 147 °C (dec.) | COCC[C@H]1CN(C2=Nc3ccccc3Sc3sc(C(C)C)cc32)CCN1C.Cl.Cl
44 to 54 °C | CN1CCN(C2=Nc3ccccc3Sc3ccccc32)C[C@@H]1CCc1ccccc1
129 to 130 °C | CCc1nc2c(s1)Sc1ccccc1N=C2N1CCN(C)[C@@H](CCc2ccc(OC)cc2)C1.Cl
133 to 135 °C | CCc1nc2c(s1)Sc1ccccc1N=C2N1CCN(C)[C@@H](CCc2cccc(F)c2)C1.Cl
